{"source": "patent US20130109633A1", "about": "“CB-183,315 Compositions and Related Methods” (Cubist Pharmaceuticals, Inc., priority 2011, published 2013)", "origin": "cited, not measured here", "tested_on": "a broad spectrum of bacteria, including drug-resistant bacteria and C. difficile", "data": [{"substance": "CB-183,315", "values": [{"measurement": "antibacterial activity", "result": "antibacterial activity against a broad spectrum of bacteria"}, {"measurement": "bacteriacidal activity", "result": "exhibits bacteriacidal activity"}]}]}
